In patent publication US20260256792A1, “TREATMENT OF CHRONIC SPONTANEOUS URTICARIA BY ADMINISTERING (R)-2-[3-[4-AMINO-3-(2-FLUORO-4-PHENOXY-PHENYL)PYRAZOLO[3,4-D]PYRIMIDIN-1-YL]PIPERIDINE-1-CARBONYL]-4-METHYL-4-[4-(OXETAN-3-YL)PIPERAZIN-1-YL]PENT-2-ENENITRILE” (priority 2023, published 2026):

Test system: moderate-to-severe chronic spontaneous urticaria (CSU)
Experiment: Phase 2 CSU study: urticaria activity score over 7 days (UAS7)
Format: in vivo, human
Details: ITT, 400 mg BID
From the text: The study comprises a 12 week, randomized, double-blind, placebo-controlled, multi-center, dose-ranging efficacy and safety phase, followed by a 40 week open label extension (OLE) phase (see FIG. 1). The study consists of three phases and an optional OLE phase. […] Clinically, CSU is characterized by the spontaneous and recurrent appearance of pruritic hives. The proposed primary endpoints were the UAS7 at Week 12 in EU and EU reference countries and the ISS7 in the US. Regardless of where a participant was from, all assessments were the same. The UAS7 score is a composite score containing both the HSS7 and the ISS7. This allowed a global assessment of the two key components of urticaria: hives and itch. […] The UAS is a validated PRO measure. […] The daily UAS scores range from 0 to 6 point/day. […] Patients were to complete the UAS using the e-diary. […] The following secondary endpoints were to be analyzed using the same approach as for the primary endpoint: • Change from baseline in UAS7 at Week 4 • Change from baseline in UAS7 at Week 12 (for US and US reference countries) • Change from baseline in ISS7 at Week 12 (except US and US reference countries) • Change from baseline in HSS7 at Week 12 The following responder secondary endpoints were to be analyzed using the Cochran-Mantel-Haenszel test adjusted by region: • Proportion of participants with UAS7<6 at Week 12 • Proportion of participants with UAS7=0 at Week 12 Participants who received selected prohibited medications and/or rescue medications were to be considered as non-responders for time points after the medication usage. For other participants, all available data including those collected during the off-treatment period were to be used to determine the responder/non-responder status. Missing data were to be considered as non-responders.

In the case of `CC(C)(C=C(C#N)C(=O)N1CCC[C@@H](n2nc(-c3ccc(Oc4ccccc4)cc3F)c3c(N)ncnc32)C1)N1CCN(C2COC2)CC1` [rilzabrutinib, (R)-2-[3-[4-amino-3-(2-fluoro-4-phenoxy-phenyl)pyrazolo[3,4-d]pyrimidin-1-yl]piperidine-1-carbonyl]-4-methyl-4-[4-(oxetan-3-yl)piperazin-1-yl]pent-2-enenitrile], the “OR for rilzabrutinib vs. placebo, UAS7 ≤6” value (Week 4) is reported as 2.948, the “RRD (%) for rilzabrutinib vs. placebo, UAS7 = 0” value (from here on “RRD (%) … UAS7 = 0”) (Week 4) is reported as 1.3 % and the “RRD (%) for rilzabrutinib vs. placebo, UAS7 ≤6” value (“RRD (%) … UAS7 ≤6” for short) (Week 4) is reported as 16.7 %. For the same molecule, the “Responder n (%), UAS7 = 0” value (Week 4) was 3 (7.3) n (%), the “Responder n (%), UAS7 ≤6” value (Week 4) was 13 (31.7) n (%) and the “Imputed non-responder n (%), UAS7 = 0” value (Week 5) was 5 (12.2) n (%). The “Imputed non-responder n (%), UAS7 ≤6” value (Week 5) was 5 (12.2) n (%), the “Non-responder n (%), UAS7 = 0” value (Week 5) was 35 (85.4) n (%) and the “Non-responder n (%), UAS7 ≤6” value (Week 5) was 28 (68.3) n (%). For the same molecule, the “OR for rilzabrutinib vs. placebo, UAS7 = 0” value (Week 5) was 6.024, the “OR for rilzabrutinib vs. placebo, UAS7 ≤6” value (Week 5) was 8.203 and the “RRD (%) … UAS7 ≤6” value (Week 5) was 24.3 %. For the same molecule, the “Responder n (%), UAS7 = 0” value (Week 5) was 6 (14.6) n (%), the “Responder n (%), UAS7 ≤6” value (Week 5) was 13 (31.7) n (%) and the “Imputed non-responder n (%), UAS7 = 0” value (Week 6) was 4 (9.8) n (%). The “Imputed non-responder n (%), UAS7 ≤6” value (Week 6) was 4 (9.8) n (%), the “Non-responder n (%), UAS7 = 0” value (Week 6) was 36 (87.8) n (%) and the “Non-responder n (%), UAS7 ≤6” value (Week 6) was 29 (70.7) n (%). The “OR for rilzabrutinib vs. placebo, UAS7 = 0” value (Week 6) was 4.821, the “OR for rilzabrutinib vs. placebo, UAS7 ≤6” value (Week 6) was 2.329 and the “RRD (%) … UAS7 = 0” value (Week 6) was 8.4 %. The “RRD (%) … UAS7 ≤6” value (Week 6) was 13.6 %, the “Responder n (%), UAS7 = 0” value (Week 6) was 5 (12.2) n (%) and the “Responder n (%), UAS7 ≤6” value (Week 6) was 12 (29.3) n (%). The “Imputed non-responder n (%), UAS7 = 0” value (Week 7) was 4 (9.8) n (%), the “Imputed non-responder n (%), UAS7 ≤6” value (Week 7) was 4 (9.8) n (%) and the “Non-responder n (%), UAS7 = 0” value (Week 7) was 35 (85.4) n (%). The “Non-responder n (%), UAS7 ≤6” value (Week 7) was 29 (70.7) n (%), the “OR for rilzabrutinib vs. placebo, UAS7 = 0” value (Week 7) was 6.024 and the “OR for rilzabrutinib vs. placebo, UAS7 ≤6” value (Week 7) was 3.425. The “RRD (%) … UAS7 ≤6” value (Week 7) was 17.8 %, the “Responder n (%), UAS7 = 0” value (Week 7) was 6 (14.6) n (%) and the “Responder n (%), UAS7 ≤6” value (Week 7) was 12 (29.3) n (%). For the same molecule, the “Imputed non-responder n (%), UAS7 = 0” value (Week 8) was 5 (12.2) n (%), the “Imputed non-responder n (%), UAS7 ≤6” value (Week 8) was 5 (12.2) n (%) and the “Non-responder n (%), UAS7 = 0” value (Week 8) was 33 (80.5) n (%). The “Non-responder n (%), UAS7 ≤6” value (Week 8) was 25 (61.0) n (%), the “OR for rilzabrutinib vs. placebo, UAS7 = 0” value (Week 8) was 4.083 and the “OR for rilzabrutinib vs. placebo, UAS7 ≤6” value (Week 8) was 3.297. The “RRD (%) … UAS7 = 0” value (Week 8) was 13.4 %, the “RRD (%) … UAS7 ≤6” value (Week 8) was 21.8 % and the “Responder n (%), UAS7 = 0” value (Week 8) was 8 (19.5) n (%). The “Responder n (%), UAS7 ≤6” value (Week 8) was 16 (39.0) n (%), the “Imputed non-responder n (%), UAS7 = 0” value (Week 9) was 9 (22.0) n (%) and the “Imputed non-responder n (%), UAS7 ≤6” value (Week 9) was 9 (22.0) n (%). The “Non-responder n (%), UAS7 = 0” value (Week 9) was 33 (80.5) n (%), the “Non-responder n (%), UAS7 ≤6” value (Week 9) was 28 (68.3) n (%) and the “OR for rilzabrutinib vs. placebo, UAS7 = 0” value (Week 9) was 2.914. The “OR for rilzabrutinib vs. placebo, UAS7 ≤6” value (Week 9) was 3.540, the “RRD (%) … UAS7 = 0” value (Week 9) was 11.3 % and the “RRD (%) … UAS7 ≤6” value (Week 9) was 19.4 %. For the same molecule, the “Responder n (%), UAS7 = 0” value (Week 9) was 8 (19.5) n (%), the “Responder n (%), UAS7 ≤6” value (Week 9) was 13 (31.7) n (%) and the “Imputed non-responder n (%), UAS7 = 0” value (Week 10) was 10 (24.4) n (%). The “Imputed non-responder n (%), UAS7 ≤6” value (Week 10) was 10 (24.4) n (%), the “Non-responder n (%), UAS7 = 0” value (Week 10) was 32 (78.0) n (%) and the “Non-responder n (%), UAS7 ≤6” value (Week 10) was 29 (70.7) n (%). The “OR for rilzabrutinib vs. placebo, UAS7 = 0” value (Week 10) was 2.322, the “OR for rilzabrutinib vs. placebo, UAS7 ≤6” value (Week 10) was 1.699 and the “RRD (%) … UAS7 = 0” value (Week 10) was 10.9 %. For the same molecule, the “RRD (%) … UAS7 ≤6” value (Week 10) was 8.6 %, the “Responder n (%), UAS7 = 0” value (Week 10) was 9 (22.0) n (%) and the “Responder n (%), UAS7 ≤6” value (Week 10) was 12 (29.3) n (%). For the same molecule, the “Imputed non-responder n (%), UAS7 = 0” value (Week 11) was 9 (22.0) n (%), the “Imputed non-responder n (%), UAS7 ≤6” value (Week 11) was 9 (22.0) n (%) and the “Non-responder n (%), UAS7 = 0” value (Week 11) was 35 (85.4) n (%).
